pIC50: −log10 of the molar value. Counter-ions that a name gives are not always drawn. Where a SMILES comes first, the peptide text is derived from it. [ ]: non-standard residue; d: D form. The star is where a group is joined. Tos = Cc1ccc(S(=O)(=O)*)cc1; Moc = COC(=O)*; For = O=C*
Legend:
Assay type in all cases: biochemical
[1] = target: T1, thrombin (Homo sapiens, UniProt P00734); assay: Thrombin-inhibiting activity, synthetic substrate PS-915; settings: Table 4; PS-915, pH 8.5, 37° C.
T1 construct: purchased Sankyo (Color Test ATIII kit)
Description: (§1) Synthetic substrates used for testing the inhibitory activity of the inhibitors on decomposition of substrates by the enzymes were as follows. For plasmin, PS-994 (H--D--Lys(Tos)--Phe--Lys--CHA·2HCl, mfd. by NITTO BOSEKI Co., Ltd.) was used; for thrombin and trypsin, PS-915 (H--D--Phe--Pro--Arg--CHA·2HCl, mfd. by NITTO BOSEKI Co., Ltd.); for Factor Xa, PS-2000 (Z--D--Lys--(HCO)--Gly--Arg--CHA·HCl, mfd. by NITTO BOSEKI Co., Ltd.); and for kallikrein, S-2302 (H--D--Pro--Phe--Arg--pNA, mfd., by Kabi Co., Ltd.).
(§2) As plasmin, standard plasmin of Sankyo Color Test α2 -D1 Kit was used in an amount of 0.3CU/ml. As thrombin, that of Sankyo Color Test ATIII kit was used in an amount of 1.2 NIHU/ml. As trypsin, that of cord 3703 of Worthington was used in an amount of 2 μg/ml. As human Factor Xa, that of Boehringer Manheim Co., Ltd. was used in an amount of 0.25 U/ml. As human plasma kallikrein, that of Kabi Co., Ltd. was used in an amount of 0.12 U/ml. As terminating color reagents, those for Sankyo Color Test Kit were used. The reactions were carried out at 37° C. unless otherwise specified.
Each of aqueous solutions (0.1 ml) of the inhibitors which solutions were various in their respective concentrations was added to 0.4 ml of a buffer solution (a 150 mM aqueous sodium chloride solution containing 150 mM Tris, pH 8.5), and the resulting solution was heated for 5 minutes. To this solution was added 0.2 ml of thrombin solution, followed by incubation for 5 minutes. Then, 0.1 ml of a PS-915 solution (10 mM) was added, followed by incubation for 5 minutes. Thereafter, 2 ml of terminating color reagent was added. After standing for 10 minutes, absorbance at 700 nm was measured, and IC50 was determined in the manner described above.

[2] = target: T2, trypsin (Bos taurus, UniProt P00760); assay: Trypsin-inhibiting activity, synthetic substrate PS-915; settings: Table 4; PS-915, pH 8.0, 37° C.
T2 construct: purchased Worthington 3703
T2 sequence (P00760 24-246): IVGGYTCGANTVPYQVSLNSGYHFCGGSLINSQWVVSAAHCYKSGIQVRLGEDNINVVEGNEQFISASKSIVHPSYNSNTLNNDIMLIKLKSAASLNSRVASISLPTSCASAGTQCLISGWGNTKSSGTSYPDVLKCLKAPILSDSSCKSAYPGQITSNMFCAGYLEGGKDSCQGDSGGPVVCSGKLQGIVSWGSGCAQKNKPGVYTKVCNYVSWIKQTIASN
Description: as §1, §2
Each of aqueous solutions (0.1 ml) of the inhibitors which solutions were various in their respective concentrations was added to 0.5 ml of a buffer solution (a 150 mM aqueous sodium chloride solution containing 150 mM Tris, pH 8.0), and the resulting solution was heated for 5 minutes. Then, 0.1 ml of a trypsin solution was added, followed by incubation for 5 minutes. Subsequently, 0.1 ml of a PS-915 solution (10 mM) was added, followed by incubation for 5 minutes. Thereafter, 2 ml of terminating color reagent [containing […] of soybean trypsin inhibitor (No. T-9003, available from Sigma Chemical Co.)] was added. After standing for 10 minutes, absorbance at 700 nm was measured and IC50 was determined in the manner described above.

[3] = target: T3, human plasma kallikrein (Homo sapiens, UniProt P03952); assay: Kallikrein-inhibiting activity, synthetic substrate S-2302; settings: Table 4; S-2302, pH 8.0, 37° C.
T3 construct: purchased Kabi Co., Ltd
Description: as §1, §2
Each of aqueous solutions (0.1 ml) of the inhibitors which solutions were various in their respective concentrations was added to 0.4 ml of a buffer solution (a 150 mM aqueous sodium chloride solution containing 50 mM Tris, pH 8.0), and the resulting mixture was heated for 5 minutes. Then, 0.1 ml of a kallikrein solution [containing 0.5% bovine serum albumin (No. A8022 available from Sigma Chemical Co.)] was added, followed by incubation for 5 minutes. Subsequently, a 10 mM S-2302 aqueous solution (0.1 ml) was added. The reaction was terminated by addition of a 20% aqueous acetic acid solution. Absorbance at 405 nm was measured and IC50 was measured in the manner described above.

[4] = target: T4, plasmin (Homo sapiens, UniProt P00747); assay: Plasmin-inhibiting activity, synthetic substrate PS-994; design: purchased Sankyo (Color Test α2 -D1 Kit); settings: Table 4; PS-994, pH 7.8, 37° C.
Description: as §1, §2
Each of aqueous solutions (0.1 ml) of the inhibitors which solutions were various in their respective concentrations was added to 0.4 ml of a buffer solution (a 150 mM aqueous sodium chloride solution containing 100 mM Tris, pH 7.8), and the resulting solution was heated for 5 minutes. To this solution was added 0.2 ml of plasmin solution, followed by incubation for 5 minutes, and then 0.1 ml of a PS-994 solution (10 mM) was added, and then incubated for 5 minutes. After completion of the reaction, 2.0 ml of terminating color reagent was added, and after standing for 10 minutes, absorbance at 700 nm was measured. A concentration of the inhibitor in the reaction system at which the absorbance was one-half that obtained in the absence of the inhibitor was determined as IC50.

[5] = target: T4, plasmin; assay: Inhibitory activity on fibrinogen decomposition by plasmin (natural substrate); design: purchased Sankyo (Color Test α2 -D1 Kit); settings: Table 4; 2% fibrinogen, pH 7.2, 37° C.
Procedure: The determination was carried out by a modification of the method described in Takaaki Aoyagi. "Koso Sogai Busshitsu (Enzyme Inhibiting Substances)" Kyoritsu Zensho, p. 12.
To 0.3 ml of phosphate buffer (pH 7.2) was added 0.1 ml of an aqueous solution of each inhibitor, and the resulting solution was heated at 37° C. for 5 minutes. Then, 0.1 ml of a plasmin solution (12 CU/ml) was added, followed by incubation for 5 minutes. Subsequently, 0.7 ml of phosphate buffer (pH 7.2) containing 2% fibrinogen was added, followed by incubation for 15 minutes. After completion of the reaction, a 12% aqueous hydrochloride acid solution (1.5 ml) containing 6% trichloroacetic acid was added, and the resulting mixture was lightly shaken, allowed to stand at room temperature for 15 minutes, and then centrifuged (3000 r.p.m., 10 minutes). The absorbance of the supernatant was measured at 280 nm, and a concentration of the inhibitor at which the absorbance was the same as when the amount of the enzyme added was reduced by half was determined as IC50.

T4 sequence (P00747 581-810 limits assumed, species assumed): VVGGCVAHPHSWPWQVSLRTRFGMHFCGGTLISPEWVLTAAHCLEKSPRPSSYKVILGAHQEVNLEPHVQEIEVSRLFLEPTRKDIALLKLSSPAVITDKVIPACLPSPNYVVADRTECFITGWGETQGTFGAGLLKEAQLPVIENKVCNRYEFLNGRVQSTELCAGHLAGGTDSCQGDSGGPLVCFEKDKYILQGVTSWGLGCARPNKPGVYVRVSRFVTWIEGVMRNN
T4 sequence (P00747 97-580 partner limits assumed, species assumed): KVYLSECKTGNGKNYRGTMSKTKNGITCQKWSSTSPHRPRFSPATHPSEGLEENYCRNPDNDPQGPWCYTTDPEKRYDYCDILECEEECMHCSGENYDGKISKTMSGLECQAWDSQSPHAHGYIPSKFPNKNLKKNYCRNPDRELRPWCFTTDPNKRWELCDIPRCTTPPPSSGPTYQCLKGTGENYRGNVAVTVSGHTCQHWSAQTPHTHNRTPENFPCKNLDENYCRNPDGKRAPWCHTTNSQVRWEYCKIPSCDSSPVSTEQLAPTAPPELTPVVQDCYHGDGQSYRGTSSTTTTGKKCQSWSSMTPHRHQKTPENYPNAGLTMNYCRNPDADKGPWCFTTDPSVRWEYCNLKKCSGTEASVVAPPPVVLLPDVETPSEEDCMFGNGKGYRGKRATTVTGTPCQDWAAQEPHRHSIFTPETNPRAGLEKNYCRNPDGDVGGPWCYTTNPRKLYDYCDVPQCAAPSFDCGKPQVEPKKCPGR
T3 sequence (P03952 391-638 limits assumed): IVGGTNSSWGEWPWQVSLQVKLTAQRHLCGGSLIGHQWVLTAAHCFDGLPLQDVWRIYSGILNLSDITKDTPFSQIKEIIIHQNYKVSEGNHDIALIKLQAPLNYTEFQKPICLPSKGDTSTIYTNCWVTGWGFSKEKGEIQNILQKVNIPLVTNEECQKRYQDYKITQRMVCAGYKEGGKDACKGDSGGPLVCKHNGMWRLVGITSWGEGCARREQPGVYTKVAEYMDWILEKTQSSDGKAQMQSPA
T3 sequence (P03952 20-390 partner limits assumed): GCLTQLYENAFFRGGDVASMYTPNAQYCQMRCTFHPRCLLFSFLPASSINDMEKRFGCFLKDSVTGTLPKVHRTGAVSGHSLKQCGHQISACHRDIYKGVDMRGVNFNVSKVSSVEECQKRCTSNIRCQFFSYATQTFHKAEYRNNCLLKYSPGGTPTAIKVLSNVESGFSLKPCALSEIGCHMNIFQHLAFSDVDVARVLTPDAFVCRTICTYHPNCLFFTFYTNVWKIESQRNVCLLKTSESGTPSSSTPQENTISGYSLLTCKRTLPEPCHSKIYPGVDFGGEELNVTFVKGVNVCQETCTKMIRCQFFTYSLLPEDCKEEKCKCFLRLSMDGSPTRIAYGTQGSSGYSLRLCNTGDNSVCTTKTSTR

Row | Structure (SMILES) | pIC50 [1] | pIC50 [2] | pIC50 [3] | pIC50 [4] | pIC50 [5]
1 | COC(=O)N[C@H](CCCCNS(=O)(=O)c1ccc(C)cc1)C(=O)N[C@@H](Cc1ccccc1)C(=O)N[C@H](C=O)CCCCN [Compound 2, N-α-Methoxycarbonyl-N-ε-(p-tosyl)-D-lysyl-L-phenylalanyl-L-lysinal hydrochloride] (Moc-[dK](Tos)-Phe-Lys-aldehyde) | < 3.00 | 5.60 | 6.44 | 8.10 | 6.89
2 | Cc1ccc(S(=O)(=O)NCCCC[C@@H](NC=O)C(=O)N[C@@H](Cc2ccccc2)C(=O)N[C@H](C=O)CCCCN)cc1 [Compound 4, N-α-Formyl-N-ε-(p-tosyl)-D-lysyl-L-phenylalanyl-L-lysinal hydrochloride] (For-[dK](Tos)-Phe-Lys-aldehyde) | < 3.00 | 5.11 | 6.00 | 7.02 | 6.72
